{"source": "paper PMC4728560", "about": "(Scientific Reports, 2016)", "test_system": "Bcl-xL inhibition of cBid/Bax", "experiment": "In vitro reconstitution liposome permeabilization, cBid/Bax with Bcl-xL", "format": "biochemical", "conditions": "ANTS/DPX liposomes, 100 nM Bax, 20 nM cBid, pre-incubation pH 9, 45 min, 37 °C, 5 h, pH 7", "description": "This purified assay system measures direct interactions in which full-length untagged Bcl-xL inhibits permeabilization by binding full-length caspase 8 cleaved Bid (cBid) and/or full-length untagged Bax, thereby preventing Bax oligomerization in membranes. […] In these assays liposome permeabilization by activated Bax releases the entrapped fluorophore/quencher pair 8-aminonaphthalene-1,3,6-trisulfonic acid (ANTS)/p-xylene-bispyridinium (DPX), resulting in a measurable increase of fluorescence.\n(A–E) in vitro reconstitution assay on liposome permeabilization. […] The treated Bcl-xL was then added to reactions containing ANTS-DPX liposomes, 100 nM Bax and 20 nM of either cBid (A,B) or cBidmt1(C,D) at pH 7. Liposome permeabilization was quantified by fluorescence after 5h incubation at 37 °C where 100% release was defined as the fluorescence change due to lipid solubilization with 1% Triton X-100. […] Error bars, std. dev. n = 3. […] Cyto c extra-mito: in the supernatant, analysed by Western blot. […]\nFigure 10 A,B) or cBid mt1 (Supplementary Figure 10 C,D) at pH 7 to quantify the activity of Bcl-xL inhibition of liposome permeablization. […]\nthen added to reactions containing ANTS-DPX liposomes, 100nM Bax and 20nM of either c Bid (A, C) or cBid mt1(B, D) at pH 7 and liposome permeabilization was quantified by fluorescence […]", "data": [{"substance": "TCTP: Translationally Controlled Tumor Protein (TCTP/tpt1), recombinant full-length", "values": [{"measurement": "effect on Bcl-xL inhibition of cBid/Bax-mediated liposome permeabilization", "value": "enhanced Bcl-xL inhibition"}]}]}
